Reference: PubChem BioAssay (NCI)
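Test compounds were applied to cells in 96-well plates for 48 hours at 5 doses. GI50 = concentration required for 50% inhibition of growth. TGI is the concentration that stops growth completely.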

Tests used:
Assay in all cases: growth of human tumour cells (NCI), 48 h
CAKI-1 renal = tested on: CAKI-1 renal
A498 renal = tested on: A498 renal
OVCAR-3 ovarian = tested on: OVCAR-3 ovarian
SNB-75 CNS = tested on: SNB-75 CNS
MCF7 breast = tested on: MCF7 breast
HCC-2998 colon = tested on: HCC-2998 colon
OVCAR-4 ovarian = tested on: OVCAR-4 ovarian
SF-268 CNS = tested on: SF-268 CNS
COLO 205 colon = tested on: COLO 205 colon
KM12 colon = tested on: KM12 colon
OVCAR-5 ovarian = tested on: OVCAR-5 ovarian
HL-60(TB) leukemia = tested on: HL-60(TB) leukemia
HT29 colon = tested on: HT29 colon
HS 578T breast = tested on: HS 578T breast
HOP-62 NSCLC = tested on: HOP-62 NSCLC
MALME-3M melanoma = tested on: MALME-3M melanoma
SNB-19 CNS = tested on: SNB-19 CNS
UO-31 renal = tested on: UO-31 renal
A549 NSCLC = tested on: A549 NSCLC
U251 CNS = tested on: U251 CNS
SF-539 CNS = tested on: SF-539 CNS
TK-10 renal = tested on: TK-10 renal
UACC-257 melanoma = tested on: UACC-257 melanoma
SW-620 colon = tested on: SW-620 colon
ACHN renal = tested on: ACHN renal
MDA-MB-435 = tested on: MDA-MB-435
K-562 leukemia = tested on: K-562 leukemia

## COc1ccc(C(=O)/C=C/c2ccc(Cl)c(C(F)(F)F)c2)cc1S(N)(=O)=O
CAKI-1 renal
  GI50: 1570 nM
  TGI: 4160 nM
A498 renal
  GI50: 12900 nM
  TGI: 25600 nM
OVCAR-3 ovarian
  GI50: 1420 nM
  TGI: 2870 nM
SNB-75 CNS
  GI50: 1620 nM
  TGI: 9690 nM
MCF7 breast
  GI50: 333 nM
  TGI: 1390 nM
HCC-2998 colon
  GI50: 1590 nM
  TGI: 2930 nM
OVCAR-4 ovarian
  GI50: 2800 nM
  TGI: 12500 nM
SF-268 CNS
  GI50: 10000 nM
  TGI: 32100 nM
COLO 205 colon
  GI50: 1960 nM
  TGI: 4080 nM
KM12 colon
  GI50: 1760 nM
  TGI: 5650 nM
OVCAR-5 ovarian
  GI50: 3270 nM
  TGI: 9350 nM
HL-60(TB) leukemia
  GI50: 1720 nM
  TGI: 5490 nM
HT29 colon
  GI50: 1520 nM
  TGI: 3060 nM
HS 578T breast
  GI50: 6570 nM
  TGI: 38800 nM
HOP-62 NSCLC
  GI50: 1930 nM
  TGI: 4130 nM
MALME-3M melanoma
  GI50: 1880 nM
  TGI: 4010 nM
SNB-19 CNS
  GI50: 1660 nM
  TGI: 3370 nM
UO-31 renal
  GI50: 1400 nM
  TGI: 2740 nM
A549 NSCLC
  GI50: 2340 nM
  TGI: 10300 nM
U251 CNS
  GI50: 1420 nM
  TGI: 3080 nM
SF-539 CNS
  GI50: 1610 nM
  TGI: 3000 nM
TK-10 renal
  GI50: 2590 nM
  TGI: 7230 nM
UACC-257 melanoma
  GI50: 2100 nM
  TGI: 6200 nM
SW-620 colon
  GI50: 1230 nM
  TGI: 2690 nM
ACHN renal
  GI50: 1470 nM
  TGI: 2840 nM
MDA-MB-435
  GI50: 1750 nM
  TGI: 4280 nM
K-562 leukemia
  GI50: 1080 nM
  TGI: > 100000 nM
